The results in this text go back to US9777002B2, “Inhibitors of the renal outer medullary potassium channel” (Merck Sharp & Dohme Corp., priority 2012, dated 2017).

In one test the target is T1, hROMK (hKir1.1) (Homo sapiens, UniProt P48048).
T1 construct: expressed in transfected cells
T1 sequence (P48048 1-391): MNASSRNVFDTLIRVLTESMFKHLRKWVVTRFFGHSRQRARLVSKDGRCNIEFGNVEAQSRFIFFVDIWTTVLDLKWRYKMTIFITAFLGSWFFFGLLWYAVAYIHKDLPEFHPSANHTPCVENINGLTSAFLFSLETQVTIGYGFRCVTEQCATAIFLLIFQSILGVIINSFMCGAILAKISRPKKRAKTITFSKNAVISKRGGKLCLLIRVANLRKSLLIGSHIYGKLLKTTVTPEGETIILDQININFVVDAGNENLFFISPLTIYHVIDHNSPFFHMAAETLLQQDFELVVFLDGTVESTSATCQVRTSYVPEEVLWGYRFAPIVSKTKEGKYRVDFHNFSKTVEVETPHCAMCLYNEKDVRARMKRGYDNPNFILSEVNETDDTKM
The test is described as follows: Thallium Flux Assay. The format is cell-based. Conditions: HEK293 cells stably expressing hROMK (hKir1.1). The procedure, abridged: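 HEK293 cells stably expressing hROMK were loaded with FluxOR dye for 90 min, then incubated with compound in probenecid assay buffer plus 0.3 mM ouabain, pH 7.4, for 30 min at 23-25 °C. Flux was triggered with 3 mM thallium/0.3 mM potassium (final) and read on FLIPR-Tetra for ~10 min. IC50 was calculated against the signal blocked by 3 μM control inhibitor.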

The next test concerns the target T2, Kir1.1 (ROMK1) (Homo sapiens, UniProt P48048).
T2 construct: expressed in transfected cells; expression induced with sodium butyrate
T2 sequence (P48048 1-391): T1 sequence (P48048 1-391)
Put plainly: Electrophysiology Assay (whole cell voltage clamp, IonWorks Quattro). The format is cell-based. Conditions: Chinese hamster ovary cells stably expressing Kir1.1; block during voltage step to 0 mV. As to the method: Block of Kir1.1 (ROMK1) currents was examined by whole cell voltage clamp (Hamill et. al. Pfluegers Archives 391:85-100 (1981)) using the IonWorks Quattro automated electrophysiology platform (Molecular Devices, Sunnyvale, Calif.). Chinese hamster ovary cells stably expressing Kir1.1 channels were maintained in T-75 flasks in cell culture media in a humidified 10% CO2 incubator at 37° C. Prior to an experiment, Kir1.1 expression was induced by overnight incubation with 1 mM sodium butyrate. On the day of the experiment, cells were dissociated with 2.5 mL of Versene (Invitrogen 15040-066) for approximately 6 min at 37° C. and suspended in 10 mL of bath solution containing (in mM): 150 NaCl, 10 KCl, 2.7 CaCl2, 0.5 MgCl2, 5 HEPES, pH 7.4. After centrifugation, the cell pellet was resuspended in approximately 4.0 mL of bath solution and placed in the IonWorks instrument. The intracellular solution consisted of (in mM): 80 K gluconate, 40 KCl, 20 KF, 3.2 MgCl2, 3 EGTA, 5 Hepes, pH 7.4. Electrical access to the cytoplasm was achieved by perforation in 0.13 mg/mL amphotericin B for 4 min. Amphotericin B (Sigma A-4888) was prepared as a 40 mg/mL solution in DMSO. Voltage protocols and current recordings were performed using the IonWorks HT software/hardware system. Currents were sampled at 1 kHz. No correction for liquid junction potentials was used. The test pulse, consisting of a 100 ms step to 0 mV from a holding potential of −70 mV, followed by a 100 ms voltage ramp from −70 mV to +70 mV, was applied before and after a 6 min compound incubation period. Test compounds were prepared by diluting DMSO stock solutions into the bath solution at 3× the final concentration and placed in the instrument in 96-well polypropylene plates. Current amplitudes were measured using the IonWorks software. To assess compound potency, the fractional block during the voltage step to 0 mV was calculated in Microsoft Excel (Microsoft, Redmond, Calif.), and dose-response curves were fitted with Igor Pro 4.0 (WaveMetrics, Lake Oswego, Oreg.). Normally, a control compound is included to support that the assay is giving consistent results compared to previous measurements, although the control is not required to obtain the results for the test compounds.

What is called IC50 is the concentration that inhibits the measured activity by half. Regarding `Cc1c(CCN2CCC(NC(=O)c3ccc4c(c3)COC4=O)CC2)ccc2c1COC2=O` [Example 1, N-(1-(2-(4-Methyl-1-oxo-1,3-dihydroisobenzofuran-5-yl)ethyl)piperidin-4-yl)-1-oxo-1,3-dihydroisobenzofuran-5-carboxamide], the IC50 against hROMK (hKir1.1) amounted to 10 nM; on Kir1.1 (ROMK1) it was 40 nM.

`Cc1c(CCN2CCC(NC(=O)c3ccc(F)c(C#N)c3)CC2)ccc2c1COC2=O` [Example 12, 3-Cyano-4-fluoro-N-(1-(2-(4-methyl-1-oxo-1,3-dihydroisobenzofuran-5-yl)ethyl)piperidin-4-yl)benzamide]: the IC50 worked out at 1000 nM at hROMK (hKir1.1) and 120 nM at Kir1.1 (ROMK1).

As to `Cc1c(CCN2CCC(NC(=O)c3ccc(C#N)cc3S(C)(=O)=O)CC2)ccc2c1COC2=O` [Example 29, 4-Cyano-N-(1-(2-(4-methyl-1-oxo-1,3-dihydroisobenzofuran-5-yl)ethyl)piperidin-4-yl)-2-(methylsulfonyl)benzamide], the IC50 against hROMK (hKir1.1) was determined as 1230 nM; against Kir1.1 (ROMK1), 240 nM.

With `Cc1c([C@@H](O)CN2CCC(C)(NC(=O)c3ccc(C#N)cn3)CC2)ccc2c1COC2=O` [Example 40, (R)-5-Cyano-N-(1-(2-hydroxy-2-(4-methyl-1-oxo-1,3-dihydroisobenzofuran-5-yl)ethyl)-4-methylpiperidin-4-yl)picolinamide], the values for the IC50 against hROMK (hKir1.1) and against Kir1.1 (ROMK1) were 1320 nM and 630 nM, respectively.
